Converted amounts (≈) assume the structure as drawn. The source made the active and inactive calls. The calls are words filed in the database; no cut-off is given here.
Each molecule was assayed on Staphylococcus aureus (assay: Antibacterial activity against Staphylococcus aureus MTCC 96 up to 200 ug/mL after 24 hrs by agar well diffusion method). Settings: not given.
Assay type: functional, organism-based

| SMILES | Activity |
| --- | --- |
| COc1ccc(C2=NN(C(C)=O)C(c3ccc(NC(=S)Nc4ccc(Cl)cc4)cc3)C2)cc1OC (stereo not given) | inactive |
| COc1ccc(C2=NN(C(C)=O)C(c3ccc(NC(=S)Nc4ccc(C)cc4)cc3)C2)cc1OC (stereo not given) | inactive |
| COc1ccc(C2=NN(C(C)=O)C(c3ccc(NC(=S)Nc4cccc(C(F)(F)F)c4)cc3)C2)cc1OC (stereo not given) | inactive |
| COc1ccc(C2=NN(C(C)=O)C(c3ccc(NC(=O)Nc4ccc(C)c(C)c4)cc3)C2)cc1OC (stereo not given) | inactive |
| COc1ccc(C2=NN(C(C)=O)C(c3ccc(NC(=S)Nc4ccccc4C(F)(F)F)cc3)C2)cc1OC (stereo not given) | inactive |

Each molecule was assayed on Escherichia coli (assay: Antibacterial activity against Escherichia coli MTCC 443 up to 200 ug/mL after 24 hrs by agar well diffusion method). Settings: not given.
Assay type: functional, organism-based

| SMILES | Activity |
| --- | --- |
| COc1ccc(C2=NN(C(C)=O)C(c3ccc(NC(=S)Nc4ccc(Cl)cc4)cc3)C2)cc1OC (stereo not given) | inactive |
| COc1ccc(C2=NN(C(C)=O)C(c3ccc(NC(=S)Nc4ccc(C)cc4)cc3)C2)cc1OC (stereo not given) | inactive |
| COc1ccc(C2=NN(C(C)=O)C(c3ccc(NC(=S)Nc4cccc(C(F)(F)F)c4)cc3)C2)cc1OC (stereo not given) | inactive |
| COc1ccc(C2=NN(C(C)=O)C(c3ccc(NC(=O)Nc4ccc(C)c(C)c4)cc3)C2)cc1OC (stereo not given) | inactive |

The molecules below were run on Candida albicans (assay: Antifungal activity against Candida albicans MTCC 227 after 2 to 3 days by agar well diffusion method). Settings: not given.
Assay type: functional

| SMILES | MIC [µg/mL] |
| --- | --- |
| COc1ccc(C2=NN(C(C)=O)C(c3ccc(NC(=S)Nc4ccc(Cl)cc4)cc3)C2)cc1OC (stereo not given) | 90 (≈ 177 µM) |
| COc1ccc(C2=NN(C(C)=O)C(c3ccc(NC(=O)Nc4ccc(C)c(C)c4)cc3)C2)cc1OC (stereo not given) | 90 (≈ 185 µM) |

The molecules below were run on Candida albicans (assay: Antifungal activity against Candida albicans MTCC 227 up to 200 ug/mL after 2 to 3 days by agar well diffusion method). Settings: not given.
Assay type: functional, organism-based

| SMILES | Activity |
| --- | --- |
| COc1ccc(C2=NN(C(C)=O)C(c3ccc(NC(=S)Nc4ccc(C)cc4)cc3)C2)cc1OC (stereo not given) | inactive |
| COc1ccc(C2=NN(C(C)=O)C(c3ccc(NC(=S)Nc4cccc(C(F)(F)F)c4)cc3)C2)cc1OC (stereo not given) | inactive |
| COc1ccc(C2=NN(C(C)=O)C(c3ccc(NC(=S)Nc4ccccc4C(F)(F)F)cc3)C2)cc1OC (stereo not given) | inactive |

The molecules below were run on Fusarium solani (assay: Antifungal activity against Fusarium solani MTCC 350 after 2 to 3 days by agar well diffusion method). Settings: not given.
Assay type: functional

| SMILES | MIC [µg/mL] |
| --- | --- |
| COc1ccc(C2=NN(C(C)=O)C(c3ccc(NC(=S)Nc4ccc(Cl)cc4)cc3)C2)cc1OC (stereo not given) | 90 (≈ 177 µM) |
| COc1ccc(C2=NN(C(C)=O)C(c3ccc(NC(=O)Nc4ccc(C)c(C)c4)cc3)C2)cc1OC (stereo not given) | 90 (≈ 185 µM) |

Each molecule was assayed on Aspergillus flavus (assay: Antifungal activity against Aspergillus flavus MTCC 277 up to 200 ug/mL after 2 to 3 days by agar well diffusion method). Settings: not given.
Assay type: functional, organism-based

| SMILES | Activity |
| --- | --- |
| COc1ccc(C2=NN(C(C)=O)C(c3ccc(NC(=S)Nc4ccc(C)cc4)cc3)C2)cc1OC (stereo not given) | inactive |
| COc1ccc(C2=NN(C(C)=O)C(c3ccc(NC(=S)Nc4cccc(C(F)(F)F)c4)cc3)C2)cc1OC (stereo not given) | inactive |
| COc1ccc(C2=NN(C(C)=O)C(c3ccc(NC(=S)Nc4ccccc4C(F)(F)F)cc3)C2)cc1OC (stereo not given) | inactive |

What follows are molecules tested on THP-1 (assay: Antiinflammatory activity in human THP1 cells assessed as inhibition of LPS-stimulated TNFalpha production at 10 uM incubated for 30 mins prior to LPS-challenge measured 24 hrs post LPS challenge by ELISA). Settings: not given.
Assay type: functional

| SMILES | inhibition at 10 µM [%] |
| --- | --- |
| COc1ccc(C2=NN(C(C)=O)C(c3ccc(NC(=S)Nc4ccc(Cl)cc4)cc3)C2)cc1OC (stereo not given) | 68 |
| COc1ccc(C2=NN(C(C)=O)C(c3ccc(NC(=S)Nc4ccc(C)cc4)cc3)C2)cc1OC (stereo not given) | 0 |
| COc1ccc(C2=NN(C(C)=O)C(c3ccc(NC(=S)Nc4cccc(C(F)(F)F)c4)cc3)C2)cc1OC (stereo not given) | 0 |
| COc1ccc(C2=NN(C(C)=O)C(c3ccc(NC(=O)Nc4ccc(C)c(C)c4)cc3)C2)cc1OC (stereo not given) | 18 |
| COc1ccc(C2=NN(C(C)=O)C(c3ccc(NC(=S)Nc4ccccc4C(F)(F)F)cc3)C2)cc1OC (stereo not given) | 40 |

These molecules were tested on Bacillus subtilis (assay: Antibacterial activity against Bacillus subtilis MTCC 441 after 24 hrs by agar well diffusion method). Settings: MTCC 441, 24 h.
Assay type: functional

| SMILES | MIC [µg/mL] |
| --- | --- |
| COc1ccc(C2=NN(C(C)=O)C(c3ccc(NC(=S)Nc4ccc(Cl)cc4)cc3)C2)cc1OC (stereo not given) | 90 (≈ 177 µM) |

The molecules below were run on THP-1 (assay: Antiinflammatory activity in human THP1 cells assessed as inhibition of LPS-stimulated IL-6 production at 10 uM incubated for 30 mins prior to LPS-challenge measured 24 hrs post LPS-challenge by ELISA). Settings: not given.
Assay type: functional

| SMILES | inhibition at 10 µM [%] |
| --- | --- |
| COc1ccc(C2=NN(C(C)=O)C(c3ccc(NC(=S)Nc4ccc(Cl)cc4)cc3)C2)cc1OC (stereo not given) | 76 |
| COc1ccc(C2=NN(C(C)=O)C(c3ccc(NC(=S)Nc4ccc(C)cc4)cc3)C2)cc1OC (stereo not given) | 3 |
| COc1ccc(C2=NN(C(C)=O)C(c3ccc(NC(=S)Nc4cccc(C(F)(F)F)c4)cc3)C2)cc1OC (stereo not given) | 8 |
| COc1ccc(C2=NN(C(C)=O)C(c3ccc(NC(=O)Nc4ccc(C)c(C)c4)cc3)C2)cc1OC (stereo not given) | 30 |
| COc1ccc(C2=NN(C(C)=O)C(c3ccc(NC(=S)Nc4ccccc4C(F)(F)F)cc3)C2)cc1OC (stereo not given) | 65 |

These molecules were tested on Bacillus subtilis (assay: Antibacterial activity against Bacillus subtilis MTCC 441 up to 200 ug/mL after 24 hrs by agar well diffusion method). Settings: not given.
Assay type: functional, organism-based

| SMILES | Activity |
| --- | --- |
| COc1ccc(C2=NN(C(C)=O)C(c3ccc(NC(=S)Nc4ccc(C)cc4)cc3)C2)cc1OC (stereo not given) | inactive |
| COc1ccc(C2=NN(C(C)=O)C(c3ccc(NC(=S)Nc4cccc(C(F)(F)F)c4)cc3)C2)cc1OC (stereo not given) | inactive |
| COc1ccc(C2=NN(C(C)=O)C(c3ccc(NC(=O)Nc4ccc(C)c(C)c4)cc3)C2)cc1OC (stereo not given) | inactive |
| COc1ccc(C2=NN(C(C)=O)C(c3ccc(NC(=S)Nc4ccccc4C(F)(F)F)cc3)C2)cc1OC (stereo not given) | inactive |

The molecules below were run on Fusarium solani (assay: Antifungal activity against Fusarium solani MTCC 350 up to 200 ug/mL after 2 to 3 days by agar well diffusion method). Settings: not given.
Assay type: functional, organism-based

| SMILES | Activity |
| --- | --- |
| COc1ccc(C2=NN(C(C)=O)C(c3ccc(NC(=S)Nc4ccc(C)cc4)cc3)C2)cc1OC (stereo not given) | inactive |
| COc1ccc(C2=NN(C(C)=O)C(c3ccc(NC(=S)Nc4cccc(C(F)(F)F)c4)cc3)C2)cc1OC (stereo not given) | inactive |
| COc1ccc(C2=NN(C(C)=O)C(c3ccc(NC(=S)Nc4ccccc4C(F)(F)F)cc3)C2)cc1OC (stereo not given) | inactive |

These molecules were tested on Salmonella typhimurium (assay: Antibacterial activity against Salmonella typhimurium MTCC 98 up to 200 ug/mL after 24 hrs by agar well diffusion method). Settings: Salmonella enterica subsp. enterica serovar Typhimurium.
Assay type: functional, organism-based

| SMILES | Activity |
| --- | --- |
| COc1ccc(C2=NN(C(C)=O)C(c3ccc(NC(=S)Nc4ccc(Cl)cc4)cc3)C2)cc1OC (stereo not given) | inactive |
| COc1ccc(C2=NN(C(C)=O)C(c3ccc(NC(=S)Nc4ccc(C)cc4)cc3)C2)cc1OC (stereo not given) | inactive |
| COc1ccc(C2=NN(C(C)=O)C(c3ccc(NC(=S)Nc4cccc(C(F)(F)F)c4)cc3)C2)cc1OC (stereo not given) | inactive |
| COc1ccc(C2=NN(C(C)=O)C(c3ccc(NC(=O)Nc4ccc(C)c(C)c4)cc3)C2)cc1OC (stereo not given) | inactive |
| COc1ccc(C2=NN(C(C)=O)C(c3ccc(NC(=S)Nc4ccccc4C(F)(F)F)cc3)C2)cc1OC (stereo not given) | inactive |

These molecules were tested on Escherichia coli (assay: Antibacterial activity against Escherichia coli MTCC 443 after 24 hrs by agar well diffusion method). Settings: MTCC 443, 24 h.
Assay type: functional

| SMILES | MIC [µg/mL] |
| --- | --- |
| COc1ccc(C2=NN(C(C)=O)C(c3ccc(NC(=S)Nc4ccccc4C(F)(F)F)cc3)C2)cc1OC (stereo not given) | 95 (≈ 175 µM) |

Each molecule was assayed on Aspergillus niger (assay: Antifungal activity against Aspergillus niger MTCC 281 up to 200 ug/mL after 2 to 3 days by agar well diffusion method). Settings: not given.
Assay type: functional, organism-based

| SMILES | Activity |
| --- | --- |
| COc1ccc(C2=NN(C(C)=O)C(c3ccc(NC(=S)Nc4ccc(Cl)cc4)cc3)C2)cc1OC (stereo not given) | inactive |
| COc1ccc(C2=NN(C(C)=O)C(c3ccc(NC(=S)Nc4ccc(C)cc4)cc3)C2)cc1OC (stereo not given) | inactive |
| COc1ccc(C2=NN(C(C)=O)C(c3ccc(NC(=S)Nc4cccc(C(F)(F)F)c4)cc3)C2)cc1OC (stereo not given) | inactive |
| COc1ccc(C2=NN(C(C)=O)C(c3ccc(NC(=O)Nc4ccc(C)c(C)c4)cc3)C2)cc1OC (stereo not given) | inactive |
| COc1ccc(C2=NN(C(C)=O)C(c3ccc(NC(=S)Nc4ccccc4C(F)(F)F)cc3)C2)cc1OC (stereo not given) | inactive |

Each molecule was assayed on Aspergillus flavus (assay: Antifungal activity against Aspergillus flavus MTCC 277 after 2 to 3 days by agar well diffusion method). Settings: not given.
Assay type: functional

| SMILES | MIC [µg/mL] |
| --- | --- |
| COc1ccc(C2=NN(C(C)=O)C(c3ccc(NC(=S)Nc4ccc(Cl)cc4)cc3)C2)cc1OC (stereo not given) | 90 (≈ 177 µM) |
| COc1ccc(C2=NN(C(C)=O)C(c3ccc(NC(=O)Nc4ccc(C)c(C)c4)cc3)C2)cc1OC (stereo not given) | 90 (≈ 185 µM) |

— ChEMBL document CHEMBL2157914, “Synthesis, anti-inflammatory and antimicrobial evaluation of novel 1-acetyl-3,5-diaryl-4,5-dihydro (1H) pyrazole derivatives bearing urea, thiourea and sulfonamide moieties” (2012)
